From patent publication US11891400B2, “Pyrazolo[1,5-a]pyrimidine-3-carboxamide derivatives useful in the treatment of psoriasis and systemic lupus erythematosus” (Eli Lilly and Company, priority 2018, dated 2024)

Key:
TYK2 JH2 = molecular target: T1, TYK2 JH2 (Homo sapiens, UniProt P29597); assay: Binding to TYK2 JH2 by Scintillation Proximity Assay; conditions: His-tagged TYK2 JH2, 3H-labelled ligand 50 nM, SPA; geometric mean (SEM); read-out: IC50, inhibition of radioligand binding to TYK2 JH2
T1 construct: The pseudokinase domain (JH2) of human JAK (Janus family of cytoplasmic tyrosine kinases) family tyrosine kinase 2 (TYK2); made in house
T1 sequence (P29597 589-875 limits assumed): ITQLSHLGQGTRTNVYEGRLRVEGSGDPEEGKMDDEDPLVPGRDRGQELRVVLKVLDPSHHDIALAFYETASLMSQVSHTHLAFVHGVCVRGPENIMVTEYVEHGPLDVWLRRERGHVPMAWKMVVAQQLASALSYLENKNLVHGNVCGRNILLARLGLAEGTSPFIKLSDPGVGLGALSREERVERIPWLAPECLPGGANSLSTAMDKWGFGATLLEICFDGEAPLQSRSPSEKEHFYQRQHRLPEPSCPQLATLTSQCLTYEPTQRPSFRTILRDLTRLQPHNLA
From the text: The pseudokinase domain (JH2) of human JAK (Janus family of cytoplasmic tyrosine kinases) family tyrosine kinase 2 (TYK2) with an N-terminal His^6 tag is expressed in baculovirus and purified by Ni-NTA affinity and size-exclusion chromatography. Yttrium (YSi) His-Tag scintillation proximity assay (SPA) beads (cat #PRNQ0096) are purchased from PerkinElmer Life Sciences. ^3H—N-[(1R)-1-[3-[8-Methyl-5-(methylamino)-8H-imidazo[4,5-d]thiazolo[5,4-b]pyridin-2-yl]phenyl]ethyl]-2-(methylsulfonyl) benzamide is synthesized by Quotient Bio with a specific activity of 63 Ci/mmol and a concentration 6.78 μM stored in ethanol (cat #TRQ41678) (See also e.g., J. S. Tokarski, et al., J. Biol. Chem., vol. 290(17), pages 11061-11074 (2015) and R. Moslin, et al., Med. Chem. Commun., vol. 8, pages 700-712 (2017)).
A 3 fold, 10 point serial dilution of Example 1 is prepared in 100% DMSO (200 nL) and transferred to a 96 well, white, clear bottom, non-binding surface assay plate (Costar 3604) using acoustic liquid handling. Control wells used to determine percent inhibition contained either DMSO (200 nL) or cold, unlabeled inhibitor (200 nL, 10 mM, 200 μM final concentration). […] After 15 minutes at room temperature, radioactivity is counted using the Trilux Microbeta.

[1] = test system: IL-23 signaling (STAT3 phosphorylation) in Kit225 cells; assay: IL23 pSTAT3 AlphaLISA assay; assay type: cell-based; conditions: 0.5 h, IL23 25 ng/ml for 30 minutes, geometric mean (SEM), read-out: relative IC50, IL23 pSTAT3
Protocol: IL2-dependent Kit225 cells expressing endogenous IL23 receptors are stably transduced with the Lenti STAT3 Reporter linked to firefly luciferase (SABiosciences CLS-6028L). These cells are used to monitor TYK2 activity by quantifying gene expression caused by STAT3 phosporylation following induction by IL23 in the presence of IL2 using AlphaLISA technology (TGR Biosciences ALSU-TST3-A50K). The cells are grown in RPMI 1640 (Gibco 22400) supplemented with 10% FBS (Invitrogen 10082), 1× Pen/Strep (Gibco 15140-122), 200 ng/ml Puromycin (Sigma P9620), and fresh 10 ng/ml recombinant human IL2 (R&D Systems 202-IL-50). For assay preparation, cells are dispensed into Biocoat black poly-d-lysine coated clear bottom 384-well plates (Becton Dickinson Bio-Coat 35-4640) in DMEM (Sigma D5796) at 300,000 cells/well and allowed to incubate overnight at 37° C. Compounds solubilized in DMSO are serially diluted 1:3 to produce a 10-point concentration response curve (final DMSO=0.1%). Cells are pre-incubated with Example 1 for 1 hour at 37° C., then stimulated with IL23 (25 ng/ml final) for 30 minutes. […] The AlphaLISA reaction is performed following the vendor's recommended protocol, and the luciferase levels are measured using an Envision plate reader (Perkin Elmer). […]

[2] = test system: IFNα signaling through pSTAT1 in TF1 cells; assay: Inhibition of IFNα signaling through pSTAT1 in TF1 cells; assay type: cell-based; conditions: Homo sapiens, TF-1, 20 min, 10 ng/ml IFNα2 for 20 minutes, AlphaLISA, geometric mean (SEM), read-out: IC50, inhibition of p-Stat1 (Tyr701)
Protocol: TF1 cells (ATCC, CL-2003) are grown in RPMI 1640 (GIBCO) supplemented with 10% dialyzed FBS, 0.1 mg/ml Ampicillin and 2 ng/mL granulocyte macrophage colony stimulating factor. TF1 cells (100 K per well) are seeded in a 96-well poly-D-lysine coated plates in serum-free DMEM and incubated overnight at 37° C. under 5% CO2. Example 1 is serially diluted in DMSO, added to the cells, and incubated at 37° C. for 1 hr. Cells are then stimulated with 10 ng/ml IFNα2 at 37° C. for 20 minutes. After removing the medium, the cells are lysed in buffer containing Halt protease and phosphatase inhibitor cocktail (Thermo Scientific #78441) at room temperature for 30 minutes. The amount of p-Stat1 (Tyr701) is quantified as light emission at 615 nm using the AlphaLISA SureFire Ultra p-Stat1 (Tyr701) assay kit (Perkin Elmer #ALSU-PST1-A50K) following the vendor's recommended protocol. Percent inhibition at each inhibitor concentration is calculated and fit to the four parameter nonlinear logistic equation using Genedata Screener® to give an IC50 for the compound of Example 1 of 0.008 μM (±0.001 μM, n=5) and for the compound of Example 2 of 0.010 μM (±0.001 μM, n=4) expressed as GeoMetric means with the standard error of the mean (SEM).

Row | IC50 (TYK2 JH2) [nM] | IC50 [1] [nM] | IC50 [2] [nM] | SMILES
1 | 40 | 10 | 10 | CCOc1ccccc1Nc1cc(NC)n2ncc(C(=O)N[C@@H]3CCN(C)C3=O)c2n1 (single isomer, unassigned) [Example 2]
2 | 45 | 9 | 8 | CNc1cc(Nc2ccccc2OC)nc2c(C(=O)N[C@@H]3CCN(C)C3=O)cnn12 [Example 1, 5-(2-Methoxyanilino)-7-(methylamino)-N-[(3R)-1-methyl-2-oxo-pyrrolidin-3-yl]pyrazolo[1,5-a]pyrimidine-3-carboxamide]
